Measurements reported in US7781565B2 (priority 2006, dated 2010).
“Also recorded” adds a separate entry of the source.

Tested on: NCI-60 cell lines
Assay type: cell-based, human

Substance	Cell Line with which the peptide (and its tripeptide motif) is associated	Cell Line the peptide is associated with (peptide recovered from phage library selection on this NCI-60 cell line)	Cell Line (NCI-60 cell line the peptide is associated with)	Cell Line (NCI-60 cell line the peptide and its motif are associated with)
FDARGGL	CCRF-CEM Leukemia	–	–	–
FDPGGLR	–	SN12C Renal	–	–
FDRAVAN	Hop-62-Lung	–	–	–
FDRGSLT	–	–	SF-295 CNS	–
FDRGVEA	K-562-Leukemia	–	–	–
FEDLLSL	–	–	MALME-3M Melanoma	–
FEGGRSG	–	–	–	M14 Melanoma
FFGGSRA	K-562-Leukemia	–	–	–
FFGRVGI	Molt-4-Leukemia	–	–	–
FFPAGGP	EKVX-Lung	–	–	–
FGGRSLS	–	–	SNB-75 CNS	–
FGGSGRG	–	–	LOX-IMVI Melanoma	–
FGGSGVL	H460-Lung	–	–	–
FGGSMAP	–	–	–	SK-MEL-2 Melanoma
FGIGRGV	–	–	–	SK-MEL-5 Melanoma
FGLGSSR	Hop-62-Lung	–	–	–
FGLRMSN	–	ACHN Renal	–	–
FGLRNSR	HL-60-Leukemia	–	–	–
FGLRSRL	SR Leukemia	–	–	–
FGRLLSP	–	–	–	UACC62 Melanoma
FGSSNRS	–	–	SF-268 CNS	–
FGVLFRS	EKVX-Lung	–	–	–

Substance	Cell Line with which the peptide (and its tripeptide motif) is associated	Cell Line the peptide is associated with (peptide recovered from phage library selection on this NCI-60 cell line)	Cell Line (NCI-60 cell line the peptide is associated with)	Cell Line (NCI-60 cell line the peptide and its motif are associated with)
FGVSGGS	–	MDA-MB-231 Breast	–	–
FGVSQVH	–	CAIK-1 Renal	–	–
FHFGGSG	–	–	–	OVCAR-5 Ovarian
FHIWGGR	–	MDA-MB-231 Breast	–	–
FHVAGGS	SR Leukemia	–	–	–
FIAGGVG	–	ACHN Renal	–	–
FISAGGW	–	MDA-MB-231 Breast	–	–
FLHMRLS	–	–	–	M14 Melanoma
FLLLSHR	–	SN12C Renal	–	–
FLLRSSF	SR Leukemia	–	–	–
FLLSRSA	–	NCI/ADR-RES Breast	–	–
FLRGVEL	–	–	–	SK-OV-3-3 Ovarian
FLRSLSL	–	–	–	SK-MEL-5 Melanoma
FLRVGEL	Hop-62-Lung	–	–	–
FMGAGFA	HL-60-Leukemia	–	–	–
FMTYGSG	–	–	–	OVCAR-4 Ovarian
FPARGED	–	A498 Renal	–	–
FPAVSTE	–	T-47D Breast	–	–
FPGSAGS	–	ACHN Renal	–	–
FQRSGRL	–	–	–	SK-MEL-28 Melanoma
FRAASLL	–	MDA-MB-231 Breast	–	–
FRAGVSH	–	–	HCT-116 Colon	–

Substance	Cell Line with which the peptide (and its tripeptide motif) is associated	Cell Line the peptide is associated with (peptide recovered from phage library selection on this NCI-60 cell line)	Cell Line (NCI-60 cell line the peptide is associated with)	Cell Line (NCI-60 cell line the peptide and its motif are associated with)
FRALGGL	–	–	SNB-75 CNS	–
FRASLQY	Hop-62-Lung	–	–	–
FRASSEV	Hop-62-Lung	–	–	–
FRFVRGS	–	HS 578 T Breast	–	–
FRVSLGY	–	ACHN Renal	–	–
FSGDAVS	–	–	HT-29 Colon	–
FSGLVVA	–	–	HT-29 Colon	–
FSKMRAS	–	–	–	DU-145 Prostate
FSLGSSP	–	UO31 Renal	–	–
FSLVSFV	–	–	–	SK-MEL-2 Melanoma
FSNARGY	–	–	–	DU-145 Prostate
FSPRGSV	–	–	SNB-19 CNS; also recorded: SF-539 CNS	–
FSSKRGV	RPMI-8226-Leukemia	–	–	–
FTLRVDK	K-562-Leukemia	–	–	–
FTRGAAS	–	–	–	SK-MEL-2 Melanoma
FTRGGLS	–	–	SNB-75 CNS	–
FTSGVSW	–	–	COLO-205-Colon	–
FVARLRV	–	TK-10 Renal	–	–
FVDIAGS	H23-Lung	–	–	–
FVGRVGE	–	A498 Renal	–	–
FVGSRGV	–	–	LOX-IMVI Melanoma	–
FVPRGSY	–	–	–	OVCAR-4 Ovarian

Substance	Cell Line with which the peptide (and its tripeptide motif) is associated	Cell Line the peptide is associated with (peptide recovered from phage library selection on this NCI-60 cell line)	Cell Line (NCI-60 cell line the peptide is associated with)	Cell Line (NCI-60 cell line the peptide and its motif are associated with)
FWISRAS	RPMI-8226-Leukemia	–	–	–
FWRGSVP	A549-Lung	–	–	–
GAAASGY	–	–	SW620-Colon	–
GAGGGVG	–	MDA-MB-435-Breast	–	–
GAGGMAR	RPMI-8226-Leukemia	–	–	–
GAGGVDV	–	–	–	786-0 Renal
GAGLGVS	–	–	–	IGROV1 Ovarian
GAGLSTS	H322-Lung	–	–	–
GAGRFPH	–	–	–	786-0 Renal
GAGRGDR	–	–	SF-295 CNS	–
GAGRGTP	–	–	HT-29 Colon	–
GAGRTVM	SR Leukemia	–	–	–
GAGSFSS	–	–	–	SK-MEL-2 Melanoma
GAGSGRT	–	HS 578 T Breast	–	–
GAGSISD	RPMI-8226-Leukemia	–	–	–
GAGSSVW	–	CAIK-1 Renal	–	–
GAGTSEG	–	TK-10 Renal	–	–
GAGVEYF	–	RXF393 Renal	–	–
GAHGLVR	SR Leukemia	–	–	–
GAHGVRL	–	SN12C Renal	–	–
GALRVPW	–	–	HCT-15 Colon	–
GARAVAP	–	HS 578 T Breast	–	–

Substance	Cell Line with which the peptide (and its tripeptide motif) is associated	Cell Line the peptide is associated with (peptide recovered from phage library selection on this NCI-60 cell line)	Cell Line (NCI-60 cell line the peptide is associated with)	Cell Line (NCI-60 cell line the peptide and its motif are associated with)
GASLTGD	H460-Lung	–	–	–
GATGVSS	–	–	–	OVCAR-8 Ovarian
GAVDGSR	RPMI-8226-Leukemia	–	–	–
GAVLFRV	Hop-62-Lung	–	–	–
GAVLTSC	–	BT-549 Breast	–	–
GAVNTPA	–	–	–	SK-MEL-2 Melanoma
GAVRARL	SR Leukemia	–	–	–
GAVRSVM	–	TK-10 Renal	–	–
GAVSVLA	–	–	SF-295 CNS	–
GAVTGYP	–	–	SF-268 CNS	–
GAVTSAD	–	–	–	SK-MEL-2 Melanoma
GAVVKPI	A549-Lung	–	–	–
GAYGGLL	–	–	SF-268 CNS	–
GAYRLVS	CCRF-CEM Leukemia	–	–	–
GCDGGSA	H23-Lung	–	–	–
GCGGVRD	–	–	HT-29 Colon	–
GDATLVS	–	–	–	786-0 Renal
GDCGLVG	–	–	–	PC3 Prostate
GDLRVSV	–	UO31 Renal	–	–
GDRAVGL	–	UO31 Renal	–	–
GDRGVRG	–	A498 Renal	–	A498 Renal
GDRRLVS	–	NCI/ADR-RES Breast	–	–

Substance	Cell Line with which the peptide (and its tripeptide motif) is associated	Cell Line the peptide is associated with (peptide recovered from phage library selection on this NCI-60 cell line)	Cell Line (NCI-60 cell line the peptide is associated with)	Cell Line (NCI-60 cell line the peptide and its motif are associated with)
GDSRRGV	Hop-62-Lung	–	–	–
GEALGLG	–	–	–	SK-MEL-2 Melanoma
GEGGSGG	–	–	–	OVCAR-5 Ovarian
GEGRLCG	–	CAIK-1 Renal	–	–
GEGSGSA	–	MDA-MB-435-Breast	–	–
GEHGLGA	H23-Lung	–	–	–
GEHLGGS	SR Leukemia	–	–	–
GESGRLS	Hop-92-Lung	–	–	–
GEVGLGV	–	–	HT-29 Colon	–
GFASLLR	–	–	HCT-15 Colon	–
GFGRLLW	–	A498 Renal	–	–
GFVAGRT	–	–	–	SK-MEL-5 Melanoma
GFYWLRS	Molt-4-Leukemia	–	–	–
GGAGRGA	–	–	–	OVCAR-4 Ovarian
GGAGSRR	–	UO31 Renal	–	–
GGALLRG	Hop-92-Lung	–	–	–
GGASLTQ	–	–	SF-295 CNS	–
GGAVLVA	CCRF-CEM Leukemia	–	–	–
GGFLLVS	–	–	–	SK-OV-3-3 Ovarian
GGFTGGL	–	–	SF-295 CNS	–
GGGLPVD	–	MDA-MB-231 Breast	–	–
